Consider 27 molecules from patent US9242987B2, “Heterocyclyl pyrazolopyrimidine analogues as JAK inhibitors” (Cellzome Limited, priority 2009, dated 2016).

Bounds are passed on as bounds.

The target in one assay is T1, JAK2 (Homo sapiens, UniProt O60674).
T1 construct: endogenous in cells; host or cells: Mixed Molt4/Ramos lysate (1:2)
Briefly: Kinobeads assay, JAK2. In kind it is binding. The conditions noted are these: mixed Molt4/Ramos cell lysate, dot blot detection. In a few lines: (§1)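 Lysate from Molt4 and Ramos cells combined 1:2 at 10 mg/mL total protein met test compound and an aminopyrido-pyrimidine affinity matrix for 3 h in the cold. Captured JAK2 and JAK3, after elution, were measured by specific-antibody dot blot on an infrared system; dose-response curves yielded IC50.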

The target of another assay is T2, JAK3 (Homo sapiens, UniProt P52333).
T2 construct: endogenous in cells; host or cells: Mixed Molt4/Ramos lysate (1:2)
T2 sequence (P52333 1-1124): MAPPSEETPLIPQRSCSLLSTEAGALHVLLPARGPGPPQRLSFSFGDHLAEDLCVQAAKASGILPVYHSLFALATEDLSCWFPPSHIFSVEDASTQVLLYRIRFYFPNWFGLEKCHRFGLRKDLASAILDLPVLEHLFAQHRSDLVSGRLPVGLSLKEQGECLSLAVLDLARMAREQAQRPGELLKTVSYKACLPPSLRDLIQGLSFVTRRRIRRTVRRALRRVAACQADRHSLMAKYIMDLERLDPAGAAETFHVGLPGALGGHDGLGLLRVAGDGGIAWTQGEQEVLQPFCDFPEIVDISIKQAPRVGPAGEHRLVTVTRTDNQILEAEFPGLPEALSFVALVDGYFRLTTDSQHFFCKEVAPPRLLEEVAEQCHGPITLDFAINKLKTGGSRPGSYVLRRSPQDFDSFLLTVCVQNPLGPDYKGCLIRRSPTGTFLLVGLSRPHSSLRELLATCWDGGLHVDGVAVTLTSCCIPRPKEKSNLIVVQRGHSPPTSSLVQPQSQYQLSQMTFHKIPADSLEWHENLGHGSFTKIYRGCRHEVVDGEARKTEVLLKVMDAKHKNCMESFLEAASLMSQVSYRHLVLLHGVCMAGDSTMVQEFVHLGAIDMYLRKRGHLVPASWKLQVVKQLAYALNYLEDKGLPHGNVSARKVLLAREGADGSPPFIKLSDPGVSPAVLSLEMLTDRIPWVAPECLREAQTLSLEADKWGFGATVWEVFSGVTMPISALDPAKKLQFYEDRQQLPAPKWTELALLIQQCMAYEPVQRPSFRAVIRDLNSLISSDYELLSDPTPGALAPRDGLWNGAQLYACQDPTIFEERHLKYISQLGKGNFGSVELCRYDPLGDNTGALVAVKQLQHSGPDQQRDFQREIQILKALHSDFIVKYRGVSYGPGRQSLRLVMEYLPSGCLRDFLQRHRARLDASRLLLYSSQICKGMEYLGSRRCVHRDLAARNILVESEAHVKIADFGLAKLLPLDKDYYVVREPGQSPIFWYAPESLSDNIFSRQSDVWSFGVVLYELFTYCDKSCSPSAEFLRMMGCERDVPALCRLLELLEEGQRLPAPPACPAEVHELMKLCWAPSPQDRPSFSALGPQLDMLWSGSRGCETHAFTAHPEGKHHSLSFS
Briefly: Kinobeads assay, JAK3. The conditions noted are these: mixed Molt4/Ramos cell lysate, dot blot detection. It is filed as binding. Put shortly:
as §1

T1 sequence (O60674 whole entry): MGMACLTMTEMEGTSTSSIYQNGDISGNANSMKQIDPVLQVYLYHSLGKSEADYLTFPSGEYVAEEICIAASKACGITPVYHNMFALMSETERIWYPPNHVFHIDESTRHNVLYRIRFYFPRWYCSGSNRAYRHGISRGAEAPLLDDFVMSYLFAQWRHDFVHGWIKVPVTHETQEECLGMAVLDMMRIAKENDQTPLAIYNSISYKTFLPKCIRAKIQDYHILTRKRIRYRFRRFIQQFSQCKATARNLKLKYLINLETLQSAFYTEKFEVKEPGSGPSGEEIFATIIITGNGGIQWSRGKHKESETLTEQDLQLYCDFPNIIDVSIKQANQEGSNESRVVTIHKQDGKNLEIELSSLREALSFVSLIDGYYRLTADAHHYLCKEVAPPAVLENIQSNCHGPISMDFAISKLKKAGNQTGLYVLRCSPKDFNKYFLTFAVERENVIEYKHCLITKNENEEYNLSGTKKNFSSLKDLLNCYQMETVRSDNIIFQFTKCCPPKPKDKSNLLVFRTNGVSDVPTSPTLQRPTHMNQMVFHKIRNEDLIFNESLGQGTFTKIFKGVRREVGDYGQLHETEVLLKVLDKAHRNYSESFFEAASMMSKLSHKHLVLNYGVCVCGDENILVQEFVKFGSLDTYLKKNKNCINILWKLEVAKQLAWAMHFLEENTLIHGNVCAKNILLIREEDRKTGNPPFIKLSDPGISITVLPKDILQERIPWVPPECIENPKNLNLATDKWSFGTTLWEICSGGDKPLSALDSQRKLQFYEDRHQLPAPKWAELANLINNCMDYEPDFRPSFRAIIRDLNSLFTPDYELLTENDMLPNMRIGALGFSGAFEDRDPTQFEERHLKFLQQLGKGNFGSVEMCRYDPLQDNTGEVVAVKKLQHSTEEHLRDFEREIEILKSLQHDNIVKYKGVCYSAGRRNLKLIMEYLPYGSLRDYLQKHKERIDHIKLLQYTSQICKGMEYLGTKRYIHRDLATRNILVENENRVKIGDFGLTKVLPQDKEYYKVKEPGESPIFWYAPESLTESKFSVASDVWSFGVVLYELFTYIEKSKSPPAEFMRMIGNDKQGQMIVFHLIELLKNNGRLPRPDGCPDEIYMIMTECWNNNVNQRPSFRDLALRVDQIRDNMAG

Consider `Cn1cc(Nc2ncc3cnn(Cc4cccc(OCCN5CCCCC5)c4)c3n2)cn1` [Example 167, N-(1-Methyl-1H-pyrazol-4-yl)-1-(3-(2-(piperidin-1-yl)ethoxy)benzyl)-1H-pyrazolo[3,4-d]pyrimidin-6-amine], for which the IC50 against JAK2 is at least 10000 nM; against JAK3 it was below 100 nM.

Turning to `Cn1cc(Nc2ncc3cnn(Cc4ccccc4OCCO)c3n2)cn1` [Example 168, 2-(2-((6-((1-Methyl-1H-pyrazol-4-yl)amino)-1H-pyrazolo[3,4-d]pyrimidin-1-yl)methyl)phenoxy)ethanol], the IC50 against JAK2 is 1000 to 10000 nM; against JAK3, below 100 nM.

As to `COCCCOc1cccc(Cn2ncc3cnc(Nc4cnn(C)c4)nc32)c1` [Example 169, 1-(3-(3-Methoxypropoxy)benzyl)-N-(1-methyl-1H-pyrazol-4-yl)-1H-pyrazolo[3,4-d]pyrimidin-6-amine], the IC50 at JAK2 is at least 10000 nM; at JAK3, 100 to 1000 nM.

With `Cn1cc(Nc2ncc3cnn(Cc4cccc(F)n4)c3n2)cn1` [Example 170, 1-((6-Fluoropyridin-2-yl)methyl)-N-(1-methyl-1H-pyrazol-4-yl)-1H-pyrazolo[3,4-d]pyrimidin-6-amine], the IC50 against JAK2 is 1000 to 10000 nM; on JAK3, below 100 nM.

On to `CO[C@@H](C)COc1cccc(Cn2ncc3cnc(Nc4cnn(C)c4)nc32)c1` [Example 171, (S)-1-(3-(2-Methoxypropoxy)benzyl)-N-(1-methyl-1H-pyrazol-4-yl)-1H-pyrazolo[3,4-d]pyrimidin-6-amine], for which the values for the IC50 on JAK2 and on JAK3 were at least 10000 nM and below 100 nM, respectively.

As for `Cn1cc(Nc2ncc3cnn(Cc4cccc(OCC5CC5)c4)c3n2)cn1` [Example 172, 1-(3-(Cyclopropylmethoxy)benzyl)-N-(1-methyl-1H-pyrazol-4-yl)-1H-pyrazolo[3,4-d]pyrimidin-6-amine], the IC50 against JAK2 was at least 10000 nM; against JAK3 it was 100 to 1000 nM.

In the case of `Cn1cc(Nc2ncc3cnn(Cc4ccccc4OCC4CC4)c3n2)cn1` [Example 173, 1-(2-(Cyclopropylmethoxy)benzyl)-N-(1-methyl-1H-pyrazol-4-yl)-1H-pyrazolo[3,4-d]pyrimidin-6-amine], the IC50 at JAK2 lay within 1000 to 10000 nM; against JAK3 it was 100 to 1000 nM.

`C[C@@H]1CN(c2cccc(Cn3ncc4cnc(Nc5cnn(C)c5)nc43)c2)C[C@H](C)O1` [Example 175, 1-(3-((2S,6R)-2,6-Dimethylmorpholino)benzyl)-N-(1-methyl-1H-pyrazol-4-yl)-1H-pyrazolo[3,4-d]pyrimidin-6-amine]: the figures for the IC50 against JAK2 and at JAK3 were at least 10000 nM and 100 to 1000 nM, respectively.

With `COCCOc1cccc(Cn2ncc3cnc(Nc4cnn(CC(F)F)c4)nc32)c1` [Example 176, N-(1-(2,2-Difluoroethyl)-1H-pyrazol-4-yl)-1-(3-(2-methoxyethoxy)benzyl)-1H-pyrazolo[3,4-d]pyrimidin-6-amine], the concentration for half-maximal inhibition (IC50) was at least 10000 nM against JAK2 and 100 to 1000 nM against JAK3.

For the molecule `Fc1ccccc1Cn1ncc2cnc(Nc3cnn(CCCN4CCC4)c3)nc21` [Example 177, N-(1-(3-(Azetidin-1-yl)propyl)-1H-pyrazol-4-yl)-1-(2-fluorobenzyl)-1H-pyrazolo[3,4-d]pyrimidin-6-amine], the IC50 at JAK2 was 100 to 1000 nM; against JAK3, below 100 nM.

In the case of `Cn1cc(Nc2ncc3cnn(Cc4cccc(Cl)c4Cl)c3n2)cn1` [Example 178, 1-(2,3-Dichlorobenzyl)-N-(1-methyl-1H-pyrazol-4-yl)-1H-pyrazolo[3,4-d]pyrimidin-6-amine], the values for the IC50 at JAK2 and against JAK3 were 1000 to 10000 nM and below 100 nM, respectively.

For `Cc1c(O)cccc1Cn1ncc2cnc(Nc3cnn(C)c3)nc21` [Example 179], the values for the IC50 on JAK2 and against JAK3 were 1000 to 10000 nM and below 100 nM, respectively.

Turning to `Cn1cc(Nc2ncc3cnn(Cc4ccccc4N4CCOCC4)c3n2)cn1` [Example 180, N-(1-Methyl-1H-pyrazol-4-yl)-1-(2-morpholinobenzyl)-1H-pyrazolo[3,4-d]pyrimidin-6-amine], the IC50 against JAK2 and at JAK3 was 100 to 1000 nM throughout.

For `Cn1cc(Nc2ncc3cnn(Cc4cccc(OC5CCOC5)c4)c3n2)cn1` (stereo not drawn) [Example 181, N-(1-Methyl-1H-pyrazol-4-yl)-1-(3-((tetrahydrofuran-3-yl)oxy)benzyl)-1H-pyrazolo[3,4-d]pyrimidin-6-amine], the IC50 against JAK2 was at least 10000 nM; on JAK3, below 100 nM.

As to `Fc1ccccc1Cn1ncc2cnc(Nc3cnn(CCN4CCNCC4)c3)nc21` [Example 182, 1-(2-Fluorobenzyl)-N-(1-(2-(piperazin-1-yl)ethyl)-1H-pyrazol-4-yl)-1H-pyrazolo[3,4-d]pyrimidin-6-amine], the IC50 on JAK2 was 100 to 1000 nM; at JAK3 it was below 100 nM.

As to `CN(C)c1cccc(Cn2ncc3cnc(Nc4cnn(C)c4)nc32)n1` [Example 183], the IC50 at JAK2 was at least 10000 nM; against JAK3, 100 to 1000 nM.

Regarding `COCCOc1cccc(Cn2ncc3cnc(Nc4cnn(CCCN(C)C)c4)nc32)c1` [Example 184, N-(1-(3-(Dimethylamino)propyl)-1H-pyrazol-4-yl)-1-(3-(2-methoxyethoxy)benzyl)-1H-pyrazolo[3,4-d]pyrimidin-6-amine], the IC50 is 1000 to 10000 nM against JAK2 and below 100 nM on JAK3.

Take `COCCOc1cccc(Cn2ncc3cnc(Nc4cnn(C)c4)nc32)c1C` [Example 185, 1-(3-(2-Methoxyethoxy)-2-methylbenzyl)-N-(1-methyl-1H-pyrazol-4-yl)-1H-pyrazolo[3,4-d]pyrimidin-6-amine]: the IC50 on JAK2 is at least 10000 nM; on JAK3 it was below 100 nM.

Take `Cn1cc(Nc2ncc3cnn(Cc4cccc(N[C@@H]5CCOC5)n4)c3n2)cn1` [Example 187, (R)—N-(1-Methyl-1H-pyrazol-4-yl)-1-((6-((tetrahydrofuran-3-yl)amino)pyridin-2-yl)methyl)-1H-pyrazolo[3,4-d]pyrimidin-6-amine]: the IC50 against JAK2 was at least 10000 nM; on JAK3, below 100 nM.

Regarding `Cn1cc(Nc2ncc3cnn(Cc4cccc(N5CCCC5)n4)c3n2)cn1` [Example 188, N-(1-Methyl-1H-pyrazol-4-yl)-1-((6-(pyrrolidin-1-yl)pyridin-2-yl)methyl)-1H-pyrazolo[3,4-d]pyrimidin-6-amine], the IC50 is at least 10000 nM against JAK2 and 100 to 1000 nM on JAK3.

On to `Cc1ccc(O)cc1Cn1ncc2cnc(Nc3cnn(C)c3)nc21` [Example 189], for which the IC50 at JAK2 is at least 10000 nM; on JAK3, 100 to 1000 nM.

Consider `CN1CCCC(Cn2cc(Nc3ncc4cnn(Cc5ccccc5F)c4n3)cn2)C1` (stereo not drawn) [Example 192, 1-(2-Fluorobenzyl)-N-(1-((1-methylpiperidin-3-yl)methyl)-1H-pyrazol-4-yl)-1H-pyrazolo[3,4-d]pyrimidin-6-amine], for which the IC50 was 100 to 1000 nM on JAK2 and below 100 nM at JAK3.

Consider `Cn1cc(Nc2ncc3cnn(Cc4cccc(OC[C@H]5CCCO5)n4)c3n2)cn1` [Example 193, (R)—N-(1-Methyl-1H-pyrazol-4-yl)-1-((6-((tetrahydrofuran-2-yl)methoxy)pyridin-2-yl)methyl)-1H-pyrazolo[3,4-d]pyrimidin-6-amine], for which the IC50 against JAK2 is at least 10000 nM; against JAK3 it was below 100 nM.

On to `CN1CCN(CCCn2cc(Nc3ncc4cnn(Cc5ccccc5F)c4n3)cn2)CC1` [Example 194, 1-(2-Fluorobenzyl)-N-(1-(3-(4-methylpiperazin-1-yl)propyl)-1H-pyrazol-4-yl)-1H-pyrazolo[3,4-d]pyrimidin-6-amine], for which the IC50 against JAK2 is at least 10000 nM; against JAK3, 100 to 1000 nM.

Take `OCCn1cc(Nc2ncc3cnn(Cc4c(F)c(F)cc(F)c4F)c3n2)cn1` [Example 196, 2-(4-((1-(2,3,5,6-Tetrafluorobenzyl)-1H-pyrazolo[3,4-d]pyrimidin-6-yl)amino)-1H-pyrazol-1-yl)ethanol]: the values for the IC50 against JAK2 and at JAK3 were 100 to 1000 nM and below 100 nM, respectively.

Consider `COCCNC(=O)c1cccc(Cn2ncc3cnc(Nc4cnn(C)c4)nc32)c1` [Example 200], for which the results for the half-maximal inhibitory concentration (IC50) at JAK2 and at JAK3 were at least 10000 nM and below 100 nM, respectively.

Consider `Cn1cc(Nc2ncc3cnn(Cc4cccc(-c5ccnc(N)c5)c4)c3n2)cn1` [Example 206, 1-(3-(2-Aminopyridin-4-yl)benzyl)-N-(1-methyl-1H-pyrazol-4-yl)-1H-pyrazolo[3,4-d]pyrimidin-6-amine], for which the results for the IC50 against JAK2 and at JAK3 were at least 10000 nM and 100 to 1000 nM, respectively.
